Experiment: recombinant UMI read abundance after kanamycin selection (control-corrected) (log10(CPM+1)); higher = more efficient recombination; extreme values may be limits of the assay; sequences stand for … in AGTGCAGAGAAAATCGGCCAGTTTTCTCTGCCTGCAGTCCGCATGCCGTGGGACCCCTTGGGTTCTAACCTGTTGCCTAGATTTATGCAGCGGACTGCCTTTCTCCCAAAGTGATAAACCGG…AGGTTGGTTTCACT; site = the 11-nt donor
In short: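 Counts of recombinant UMIs were reported as log10(CPM+1). Before that, they were converted to CPM, averaged over replicates and scaled using control-derived factors. They came from PCR across the donor–target junction after Escherichia coli carrying the pair library and target plasmid was plated on IPTG (0.07 mM) plus kanamycin, or unselected, in two replicates each.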
In the case of “CCAACTTCATGGACCGGTTTTCCCGGTAATCCGTATTTGAT (site CCAACTTCTAT)”, the “recombinant UMI read abundance (log10)” value is reported as 0.
For “CCAATATCATGGACCGGTTTTCCCGGTAATCCGTATTTGAG (site CCAATATCTCT)”, the “recombinant UMI read abundance (log10)” value was 1.21.
With “CCAATCACATGGACCGGTTTTCCCGGTAATCCGTATTTGGG (site CCAATCACTCC)” the “recombinant UMI read abundance (log10)” value was 0.336.
For “CCAATTGCATGGACCGGTTTTCCCGGTAATCCGTATTTGAG (site CCAATTGCTCT)”, the “recombinant UMI read abundance (log10)” value was 0.865.
For “CCACAGTCATGGACCGGTTTTCCCGGTAATCCGTATTTGTG (site CCACAGTCTCA)”, the “recombinant UMI read abundance (log10)” value was 1.93.
For “CCACATCCATGGACCGGTTTTCCCGGTAATCCGTATTTGAC (site ACACATCCTGT)”, the “recombinant UMI read abundance (log10)” value was 0.
In the case of “CCACATCCATGGACCGGTTTTCCCGGTAATCCGTATTTGAC (site CCACATCCTGT)”, the “recombinant UMI read abundance (log10)” value is reported as 0.
With “CCACATCCATGGACCGGTTTTCCCGGTAATCCGTATTTGAC (site GCACATCCTGT)” the “recombinant UMI read abundance (log10)” value was 0.
With “CCACATCCATGGACCGGTTTTCCCGGTAATCCGTATTTGAC (site TCACATCCTGT)” the “recombinant UMI read abundance (log10)” value was 0.
For “CCACGTGCATGGACCGGTTTTCCCGGTAATCCGTATTTGAT (site CCAAGTGCTAT)”, the “recombinant UMI read abundance (log10)” value was 0.0041.
With “CCACGTGCATGGACCGGTTTTCCCGGTAATCCGTATTTGAT (site CCACGTGCTAT)” the “recombinant UMI read abundance (log10)” value was 0.871.
For “CCACGTGCATGGACCGGTTTTCCCGGTAATCCGTATTTGAT (site CCAGGTGCTAT)”, the “recombinant UMI read abundance (log10)” value was 0.0128.
With “CCACGTGCATGGACCGGTTTTCCCGGTAATCCGTATTTGAT (site CCATGTGCTAT)” the “recombinant UMI read abundance (log10)” value was 0.0143.
With “CCAGATGCATGGACCGGTTTTCCCGGTAATCCGTATTTGAT (site CCAGATGCTAT)” the “recombinant UMI read abundance (log10)” value was 1.26.
In the case of “CCAGATGCATGGACCGGTTTTCCCGGTAATCCGTATTTGAT (site CCAGCTGCTAT)”, the “recombinant UMI read abundance (log10)” value is reported as 0.00516.
In the case of “CCAGATGCATGGACCGGTTTTCCCGGTAATCCGTATTTGAT (site CCAGGTGCTAT)”, the “recombinant UMI read abundance (log10)” value is reported as 0.261.
With “CCAGATGCATGGACCGGTTTTCCCGGTAATCCGTATTTGAT (site CCAGTTGCTAT)” the “recombinant UMI read abundance (log10)” value was 0.00471.
In the case of “CCAGCCCCATGGACCGGTTTTCCCGGTAATCCGTATTTGCC (site CCAGCCCCTGG)”, the “recombinant UMI read abundance (log10)” value is reported as 0.451.
For “CCAGGATCATGGACCGGTTTTCCCGGTAATCCGTATTTGCA (site ACAGTATCTTG)”, the “recombinant UMI read abundance (log10)” value was 0.
In the case of “CCAGGATCATGGACCGGTTTTCCCGGTAATCCGTATTTGCA (site CCAGGATCTTG)”, the “recombinant UMI read abundance (log10)” value is reported as 0.424.
For “CCAGGTGCATGGACCGGTTTTCCCGGTAATCCGTATTTGAT (site ACAGGTGCTAT)”, the “recombinant UMI read abundance (log10)” value was 0.0184.
For “CCAGGTGCATGGACCGGTTTTCCCGGTAATCCGTATTTGAT (site CAAGGTGCTAT)”, the “recombinant UMI read abundance (log10)” value was 0.441.
With “CCAGGTGCATGGACCGGTTTTCCCGGTAATCCGTATTTGAT (site CCAAGTGCTAT)” the “recombinant UMI read abundance (log10)” value was 1.24.
For “CCAGGTGCATGGACCGGTTTTCCCGGTAATCCGTATTTGAT (site CCACGTGCTAT)”, the “recombinant UMI read abundance (log10)” value was 0.497.
In the case of “CCAGGTGCATGGACCGGTTTTCCCGGTAATCCGTATTTGAT (site CCAGATGCTAT)”, the “recombinant UMI read abundance (log10)” value is reported as 1.74.
For “CCAGGTGCATGGACCGGTTTTCCCGGTAATCCGTATTTGAT (site CCAGCTGCTAT)”, the “recombinant UMI read abundance (log10)” value was 0.00488.
For “CCAGGTGCATGGACCGGTTTTCCCGGTAATCCGTATTTGAT (site CCAGGAGCTAT)”, the “recombinant UMI read abundance (log10)” value was 0.984.
For “CCAGGTGCATGGACCGGTTTTCCCGGTAATCCGTATTTGAT (site CCAGGCGCTAT)”, the “recombinant UMI read abundance (log10)” value was 0.436.
In the case of “CCAGGTGCATGGACCGGTTTTCCCGGTAATCCGTATTTGAT (site CCAGGGGCTAT)”, the “recombinant UMI read abundance (log10)” value is reported as 1.32.
For “CCAGGTGCATGGACCGGTTTTCCCGGTAATCCGTATTTGAT (site CCAGGTACTAT)”, the “recombinant UMI read abundance (log10)” value was 0.835.
In the case of “CCAGGTGCATGGACCGGTTTTCCCGGTAATCCGTATTTGAT (site CCAGGTCCTAT)”, the “recombinant UMI read abundance (log10)” value is reported as 0.
With “CCAGGTGCATGGACCGGTTTTCCCGGTAATCCGTATTTGAT (site CCAGGTGCTAA)” the “recombinant UMI read abundance (log10)” value was 0.0192.
In the case of “CCAGGTGCATGGACCGGTTTTCCCGGTAATCCGTATTTGAT (site CCAGGTGCTAC)”, the “recombinant UMI read abundance (log10)” value is reported as 0.227.
For “CCAGGTGCATGGACCGGTTTTCCCGGTAATCCGTATTTGAT (site CCAGGTGCTAG)”, the “recombinant UMI read abundance (log10)” value was 0.
In the case of “CCAGGTGCATGGACCGGTTTTCCCGGTAATCCGTATTTGAT (site CCAGGTGCTAT)”, the “recombinant UMI read abundance (log10)” value is reported as 1.32.
In the case of “CCAGGTGCATGGACCGGTTTTCCCGGTAATCCGTATTTGAT (site CCAGGTGCTCT)”, the “recombinant UMI read abundance (log10)” value is reported as 0.00956.
For “CCAGGTGCATGGACCGGTTTTCCCGGTAATCCGTATTTGAT (site CCAGGTGCTGT)”, the “recombinant UMI read abundance (log10)” value was 0.
In the case of “CCAGGTGCATGGACCGGTTTTCCCGGTAATCCGTATTTGAT (site CCAGGTGCTTT)”, the “recombinant UMI read abundance (log10)” value is reported as 0.206.
For “CCAGGTGCATGGACCGGTTTTCCCGGTAATCCGTATTTGAT (site CCAGGTTCTAT)”, the “recombinant UMI read abundance (log10)” value was 0.204.
For “CCAGGTGCATGGACCGGTTTTCCCGGTAATCCGTATTTGAT (site CCAGTTGCTAT)”, the “recombinant UMI read abundance (log10)” value was 0.00491.
For “CCAGGTGCATGGACCGGTTTTCCCGGTAATCCGTATTTGAT (site CCATGTGCTAT)”, the “recombinant UMI read abundance (log10)” value was 0.018.
For “CCAGGTGCATGGACCGGTTTTCCCGGTAATCCGTATTTGAT (site CCCGGTGCTAT)”, the “recombinant UMI read abundance (log10)” value was 0.433.
In the case of “CCAGGTGCATGGACCGGTTTTCCCGGTAATCCGTATTTGAT (site CCGGGTGCTAT)”, the “recombinant UMI read abundance (log10)” value is reported as 1.47.
For “CCAGGTGCATGGACCGGTTTTCCCGGTAATCCGTATTTGAT (site CCTGGTGCTAT)”, the “recombinant UMI read abundance (log10)” value was 0.
For “CCAGGTGCATGGACCGGTTTTCCCGGTAATCCGTATTTGAT (site CGAGGTGCTAT)”, the “recombinant UMI read abundance (log10)” value was 0.0036.
With “CCAGGTGCATGGACCGGTTTTCCCGGTAATCCGTATTTGAT (site CTAGGTGCTAT)” the “recombinant UMI read abundance (log10)” value was 0.629.
For “CCAGGTGCATGGACCGGTTTTCCCGGTAATCCGTATTTGAT (site GCAGGTGCTAT)”, the “recombinant UMI read abundance (log10)” value was 0.00654.
For “CCAGGTGCATGGACCGGTTTTCCCGGTAATCCGTATTTGAT (site TCAGGTGCTAT)”, the “recombinant UMI read abundance (log10)” value was 0.0184.
In the case of “CCATCATCATGGACCGGTTTTCCCGGTAATCCGTATTTGCT (site CAATCATCTAG)”, the “recombinant UMI read abundance (log10)” value is reported as 0.
With “CCATCATCATGGACCGGTTTTCCCGGTAATCCGTATTTGCT (site CCATCATCTAG)” the “recombinant UMI read abundance (log10)” value was 0.
For “CCATCATCATGGACCGGTTTTCCCGGTAATCCGTATTTGCT (site CGATCATCTAG)”, the “recombinant UMI read abundance (log10)” value was 0.
In the case of “CCATCATCATGGACCGGTTTTCCCGGTAATCCGTATTTGCT (site CTATCATCTAG)”, the “recombinant UMI read abundance (log10)” value is reported as 0.0047.
With “CCATCATCATGGACCGGTTTTCCCGGTAATCCGTATTTGTT (site CCATCATCTAA)” the “recombinant UMI read abundance (log10)” value was 0.00419.
For “CCATCATCATGGACCGGTTTTCCCGGTAATCCGTATTTGTT (site CGATCATCTAG)”, the “recombinant UMI read abundance (log10)” value was 0.
With “CCATCGGCATGGACCGGTTTTCCCGGTAATCCGTATTTGTG (site CCATCGGCTCA)” the “recombinant UMI read abundance (log10)” value was 1.73.
With “CCATCTTCATGGACCGGTTTTCCCGGTAATCCGTATTTGCT (site CCATCTTCTAG)” the “recombinant UMI read abundance (log10)” value was 0.0559.
For “CCATCTTCATGGACCGGTTTTCCCGGTAATCCGTATTTGCT (site CGATCATCTAG)”, the “recombinant UMI read abundance (log10)” value was 0.
With “CCATGACCATGGACCGGTTTTCCCGGTAATCCGTATTTGGA (site CCATGACCTTC)” the “recombinant UMI read abundance (log10)” value was 0.023.
With “CCATGCTCATGGACCGGTTTTCCCGGTAATCCGTATTTGAA (site CAATGCTCTTT)” the “recombinant UMI read abundance (log10)” value was 0.0121.
For “CCATGCTCATGGACCGGTTTTCCCGGTAATCCGTATTTGAA (site CCATGCTCTTT)”, the “recombinant UMI read abundance (log10)” value was 0.703.
For “CCATGCTCATGGACCGGTTTTCCCGGTAATCCGTATTTGAA (site CGATGCTCTTT)”, the “recombinant UMI read abundance (log10)” value was 0.0134.
With “CCATGCTCATGGACCGGTTTTCCCGGTAATCCGTATTTGAA (site CTATGCTCTTT)” the “recombinant UMI read abundance (log10)” value was 0.015.
With “CCATGTGCATGGACCGGTTTTCCCGGTAATCCGTATTTGAT (site CCAAGTGCTAT)” the “recombinant UMI read abundance (log10)” value was 0.00273.
In the case of “CCATGTGCATGGACCGGTTTTCCCGGTAATCCGTATTTGAT (site CCACGTGCTAT)”, the “recombinant UMI read abundance (log10)” value is reported as 0.215.
With “CCATGTGCATGGACCGGTTTTCCCGGTAATCCGTATTTGAT (site CCAGGTGCTAT)” the “recombinant UMI read abundance (log10)” value was 0.00344.
With “CCATGTGCATGGACCGGTTTTCCCGGTAATCCGTATTTGAT (site CCATGTGCTAT)” the “recombinant UMI read abundance (log10)” value was 1.09.
For “CCATTAGCATGGACCGGTTTTCCCGGTAATCCGTATTTGTG (site CCATTAGCTCA)”, the “recombinant UMI read abundance (log10)” value was 0.183.
With “CCATTAGCATGGACCGGTTTTCCCGGTAATCCGTATTTGTG (site CCCTTAGCTCA)” the “recombinant UMI read abundance (log10)” value was 0.00634.
With “CCATTAGCATGGACCGGTTTTCCCGGTAATCCGTATTTGTG (site CCGTTAGCTCA)” the “recombinant UMI read abundance (log10)” value was 0.0308.
In the case of “CCATTAGCATGGACCGGTTTTCCCGGTAATCCGTATTTGTG (site CCTTTAGCTCA)”, the “recombinant UMI read abundance (log10)” value is reported as 0.0119.
For “CCATTCCCATGGACCGGTTTTCCCGGTAATCCGTATTTGAC (site CCATTCCCTGT)”, the “recombinant UMI read abundance (log10)” value was 0.
For “CCATTTGCATGGACCGGTTTTCCCGGTAATCCGTATTTGGC (site CCATTTGCTGC)”, the “recombinant UMI read abundance (log10)” value was 0.
For “CCCAAAGCATGGACCGGTTTTCCCGGTAATCCGTATTTGAT (site CCAAAAGCTAT)”, the “recombinant UMI read abundance (log10)” value was 0.
In the case of “CCCAAAGCATGGACCGGTTTTCCCGGTAATCCGTATTTGAT (site CCCAAAGCTAT)”, the “recombinant UMI read abundance (log10)” value is reported as 0.774.
For “CCCAAAGCATGGACCGGTTTTCCCGGTAATCCGTATTTGAT (site CCGAAAGCTAT)”, the “recombinant UMI read abundance (log10)” value was 0.

— the supplement of paper PMC11208160
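Further: IS621 bridge recombinase in Escherichia coli cells against a fixed T5 target plasmid.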
